Test in all cases: Kinase panel profiling at 1 µmol/L (MSA or IMAP), percentage inhibition
Holding throughout (format): biochemical

Assay [1] concerns the target T1, panel of 255 wild-type kinases (Homo sapiens, UniProt P52333).
T1 sequence (P52333 1-1124): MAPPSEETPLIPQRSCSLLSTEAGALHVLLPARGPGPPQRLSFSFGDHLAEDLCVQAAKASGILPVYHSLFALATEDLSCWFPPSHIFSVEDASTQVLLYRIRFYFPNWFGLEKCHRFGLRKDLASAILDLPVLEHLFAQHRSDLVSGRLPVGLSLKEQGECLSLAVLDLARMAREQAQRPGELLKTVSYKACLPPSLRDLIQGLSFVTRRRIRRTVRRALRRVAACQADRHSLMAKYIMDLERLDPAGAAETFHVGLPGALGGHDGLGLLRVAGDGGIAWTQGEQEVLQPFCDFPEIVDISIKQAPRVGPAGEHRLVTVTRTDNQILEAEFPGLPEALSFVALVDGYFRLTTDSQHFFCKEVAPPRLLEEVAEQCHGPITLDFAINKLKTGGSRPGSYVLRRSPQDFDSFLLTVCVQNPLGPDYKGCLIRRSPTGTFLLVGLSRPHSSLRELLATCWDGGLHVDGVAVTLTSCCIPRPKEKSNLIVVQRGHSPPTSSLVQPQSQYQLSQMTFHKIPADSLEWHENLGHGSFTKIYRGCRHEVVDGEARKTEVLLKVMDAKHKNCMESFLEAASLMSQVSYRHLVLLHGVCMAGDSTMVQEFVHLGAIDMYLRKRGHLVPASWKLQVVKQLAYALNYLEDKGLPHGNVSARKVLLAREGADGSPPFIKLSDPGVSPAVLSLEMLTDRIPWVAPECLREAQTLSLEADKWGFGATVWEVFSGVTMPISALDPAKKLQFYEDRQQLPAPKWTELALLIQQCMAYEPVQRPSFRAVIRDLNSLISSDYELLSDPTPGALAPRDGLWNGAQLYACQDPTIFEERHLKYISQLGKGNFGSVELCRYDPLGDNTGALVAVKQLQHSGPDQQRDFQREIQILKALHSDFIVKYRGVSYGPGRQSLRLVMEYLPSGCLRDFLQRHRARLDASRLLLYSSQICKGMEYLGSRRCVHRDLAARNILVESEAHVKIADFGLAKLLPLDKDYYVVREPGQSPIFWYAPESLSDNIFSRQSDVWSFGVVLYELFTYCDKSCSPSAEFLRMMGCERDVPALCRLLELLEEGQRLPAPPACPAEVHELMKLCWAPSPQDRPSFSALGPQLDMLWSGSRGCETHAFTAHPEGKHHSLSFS
To be noted: read-out: %-inhibition at 1 µmol/L, JAK3.

The target of assay [2] is panel of 255 wild-type kinases (Homo sapiens, UniProt P68400). The settings on record: read-out: %-inhibition at 1 µmol/L, CK2α1/β.
The target of assay [3] is T2, panel of 255 wild-type kinases (Homo sapiens, UniProt Q08881).
T2 sequence (Q08881 1-620): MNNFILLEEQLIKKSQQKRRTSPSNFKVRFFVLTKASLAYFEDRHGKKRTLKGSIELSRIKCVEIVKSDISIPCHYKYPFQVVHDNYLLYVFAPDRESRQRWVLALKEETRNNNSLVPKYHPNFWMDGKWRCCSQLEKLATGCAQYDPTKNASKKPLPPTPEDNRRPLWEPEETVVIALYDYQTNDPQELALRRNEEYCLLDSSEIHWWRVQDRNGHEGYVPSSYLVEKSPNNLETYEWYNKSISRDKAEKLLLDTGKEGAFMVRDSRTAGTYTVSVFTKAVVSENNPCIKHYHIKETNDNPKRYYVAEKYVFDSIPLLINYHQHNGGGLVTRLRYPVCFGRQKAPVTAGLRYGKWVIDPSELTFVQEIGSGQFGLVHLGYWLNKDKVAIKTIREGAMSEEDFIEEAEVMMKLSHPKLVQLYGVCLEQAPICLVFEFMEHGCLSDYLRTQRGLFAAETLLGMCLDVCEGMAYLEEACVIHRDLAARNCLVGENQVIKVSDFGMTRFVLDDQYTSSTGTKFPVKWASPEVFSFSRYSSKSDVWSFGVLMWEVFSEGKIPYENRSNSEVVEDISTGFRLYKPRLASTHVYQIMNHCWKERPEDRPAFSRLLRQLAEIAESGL
The settings on record: read-out: %-inhibition at 1 µmol/L, ITK.

Assay [4] concerns the target panel of 255 wild-type kinases (Homo sapiens, UniProt Q16644). The settings on record: read-out: %-inhibition, MAPKAPK3.
For assay [5], the target named is panel of 255 wild-type kinases (Homo sapiens, UniProt Q9Y2H1). To be noted: read-out: %-inhibition, NDR2.
Setting [6] is: kinase JAK3, 1 µmol/L single concentration.
Where [7] appears, read: kinase CK2α1/β, 1 µmol/L single concentration.
Where [8] appears, read: kinase ITK, 1 µmol/L single concentration.
[9] abbreviates: MAPKAPK3, 1 µmol/L single concentration.
Where [10] appears, read: NDR2, 1 µmol/L single concentration.

Like-named read-outs stand apart in the source and are kept apart here.

In the case of `Cc1nc(NC(=O)N2CCC[C@H]2C(N)=O)sc1-c1ccnc(C(C)(C)C(F)(F)F)c1` [alpelisib], the inhibition at 1 µM is 0.447% in assay [1] (setting [6]); -1.52% in assay [2] (setting [7]); 9% in assay [3] (setting [8]); -13% in assay [4] (setting [9]); -2% in assay [5] (setting [10]).

On to `Cn1cc(-c2cc3c(N4CCN(c5ncc([C@@](C)(N)c6ccc(F)cc6)cn5)CC4)ncnn3c2)cn1` [avapritinib], for which the inhibition at 1 µM was 64% in assay [1] (setting [6]); -3.77% in assay [2] (setting [7]); 19% in assay [3] (setting [8]); -4% in assay [4] (setting [9]); -2.84% in assay [5] (setting [10]).

For the molecule `Cn1cnc2c(F)c(Nc3ccc(Br)cc3F)c(C(=O)NOCCO)cc21` [binimetinib], the inhibition at 1 µM in assay [1] (setting [6]) was -0.365%; in assay [2] (setting [7]) it was -4.22%; in assay [3] (setting [8]) it was 1.61%; in assay [4] (setting [9]), -11%; in assay [5] (setting [10]) it was -1.45%.

Turning to `CNC(=O)c1ccc(-c2cnc3ncc(Cc4ccc5ncccc5c4)n3n2)cc1F` [capmatinib], the inhibition at 1 µM was 3.32% in assay [1]; -3.18% in assay [2]; 5% in assay [3]; -11% in assay [4]; -5.51% in assay [5].

As to `COc1cc2ncnc(Nc3ccc(F)c(Cl)c3)c2cc1NC(=O)/C=C/CN1CCCCC1` [dacomitinib], the inhibition at 1 µM in assay [1] (setting [6]) is 28%; in assay [2] (setting [7]) it was -4%; in assay [3] (setting [8]), 24%; in assay [4] (setting [9]), -25%; in assay [5] (setting [10]), -1.58%.

In the case of `C[C@H](Nc1ncnc2nc[nH]c12)c1cc2cccc(Cl)c2c(=O)n1-c1ccccc1` [duvelisib], the inhibition at 1 µM in assay [1] (setting [6]) was 3%; in assay [2] (setting [7]), -2.47%; in assay [3] (setting [8]), 9%; in assay [4] (setting [9]), -13%; in assay [5] (setting [10]), -0.151%.

For `COC(=O)N[C@@H](C)CNc1nccc(-c2cn(C(C)C)nc2-c2cc(Cl)cc(NS(C)(=O)=O)c2F)n1` [encorafenib], the inhibition at 1 µM in assay [1] (setting [6]) is 2.28%; in assay [2] (setting [7]) it was -1%; in assay [3] (setting [8]), 3.49%; in assay [4] (setting [9]), -15%; in assay [5] (setting [10]), 5%.

Take `CN1CCN(c2ccc(C(=O)Nc3n[nH]c4ccc(Cc5cc(F)cc(F)c5)cc34)c(NC3CCOCC3)c2)CC1` [entrectinib]: the inhibition at 1 µM in assay [1] (setting [6]) is 97%; in assay [2] (setting [7]) it was 1.84%; in assay [3] (setting [8]), 99%; in assay [4] (setting [9]), -10%; in assay [5] (setting [10]), 51%.

In the case of `CCc1nc(C(N)=O)c(Nc2ccc(N3CCC(N4CCN(C)CC4)CC3)c(OC)c2)nc1NC1CCOCC1` [gilteritinib], the inhibition at 1 µM in assay [1] (setting [6]) is 91%; in assay [2] (setting [7]) it was 15%; in assay [3] (setting [8]) it was 92%; in assay [4] (setting [9]) it was -16%; in assay [5] (setting [10]), 66%.

For the molecule `CCN1CCN(c2ccc(Nc3cc(N(C)C(=O)Nc4c(Cl)c(OC)cc(OC)c4Cl)ncn3)cc2)CC1` [infigratinib], the inhibition at 1 µM in assay [1] (setting [6]) is 7%; in assay [2] (setting [7]), -4%; in assay [3] (setting [8]), 6%; in assay [4] (setting [9]), -17%; in assay [5] (setting [10]), -3.19%.

In the case of `O=C(Nc1cnn2ccc(N3CCC[C@@H]3c3cc(F)ccc3F)nc12)N1CC[C@H](O)C1` [larotrectinib], the inhibition at 1 µM in assay [1] (setting [6]) was 6%; in assay [2] (setting [7]) it was -2.37%; in assay [3] (setting [8]), 13%; in assay [4] (setting [9]), -16%; in assay [5] (setting [10]) it was -4.33%.

Regarding `C[C@H]1Oc2cc(cnc2N)-c2c(nn(C)c2C#N)CN(C)C(=O)c2ccc(F)cc21` [lorlatinib], the inhibition at 1 µM is 6.62% in assay [1] (setting [6]); -2% in assay [2] (setting [7]); 14% in assay [3] (setting [8]); -10% in assay [4] (setting [9]); 2.18% in assay [5] (setting [10]).

For `CCN1C(=O)N(c2c(F)c(OC)cc(OC)c2F)Cc2cnc3[nH]c(CN4CCOCC4)cc3c21` [pemigatinib], the inhibition at 1 µM in assay [1] (setting [6]) was 0.2%; in assay [2] (setting [7]), -2.8%; in assay [3] (setting [8]) it was 2%; in assay [4] (setting [9]), -12%; in assay [5] (setting [10]) it was -1.83%.

Regarding `FC(F)(F)c1ccc(CNc2ccc(Cc3c[nH]c4ncc(Cl)cc34)cn2)cn1` [pexidartinib], the inhibition at 1 µM was 40% in assay [1] (setting [6]); 0.256% in assay [2] (setting [7]); 9% in assay [3] (setting [8]); -15% in assay [4] (setting [9]); 8% in assay [5] (setting [10]).

For `CO[C@]1(C(=O)N[C@@H](C)c2ccc(-n3cc(F)cn3)nc2)CC[C@H](c2nc(C)cc(Nc3cc(C)[nH]n3)n2)CC1` [pralsetinib], the inhibition at 1 µM was 96% in assay [1] (setting [6]); -2.52% in assay [2] (setting [7]); 59% in assay [3] (setting [8]); -22% in assay [4] (setting [9]); 0.23% in assay [5] (setting [10]).

Turning to `CCn1c(=O)c(-c2cc(NC(=O)Nc3ccccc3)c(F)cc2Br)cc2cnc(NC)cc21` [ripretinib], the inhibition at 1 µM in assay [1] (setting [6]) is 7%; in assay [2] (setting [7]) it was 1%; in assay [3] (setting [8]) it was 1.24%; in assay [4] (setting [9]), -16%; in assay [5] (setting [10]) it was 2.69%.

As to `COc1ccc(CN2C3CC2CN(c2ccc(-c4cc(OCC(C)(C)O)cn5ncc(C#N)c45)cn2)C3)cn1` [selpercatinib], the inhibition at 1 µM is 27% in assay [1] (setting [6]); -1.82% in assay [2] (setting [7]); 79% in assay [3] (setting [8]); -12% in assay [4] (setting [9]); -4.53% in assay [5] (setting [10]).

As for `Cn1cnc2c(F)c(Nc3ccc(Br)cc3Cl)c(C(=O)NOCCO)cc21` [selumetinib], the inhibition at 1 µM in assay [1] (setting [6]) is 6%; in assay [2] (setting [7]), -5%; in assay [3] (setting [8]), 4.28%; in assay [4] (setting [9]), -14%; in assay [5] (setting [10]) it was -3.24%.

Turning to `Cc1cc(Nc2ncnc3ccc(NC4=NC(C)(C)CO4)cc23)ccc1Oc1ccn2ncnc2c1` [tucatinib], the inhibition at 1 µM was 4.65% in assay [1] (setting [6]); -4% in assay [2] (setting [7]); 1.31% in assay [3] (setting [8]); -3% in assay [4] (setting [9]); -0.504% in assay [5] (setting [10]).

For the molecule `C=CC(=O)N1CCC([C@@H]2CCNc3c(C(N)=O)c(-c4ccc(Oc5ccccc5)cc4)nn32)CC1` [zanubrutinib], the inhibition at 1 µM in assay [1] is 10%; in assay [2] (setting [7]) it was -2%; in assay [3] (setting [8]), 34%; in assay [4] (setting [9]), -12%; in assay [5] (setting [10]), 0.505%.
